One experiment has as its system isolated rat adipocytes. The experiment is described as follows: Insulin-stimulated lipogenesis. The format is cell-based. The conditions noted are these: 1% HSA; relative to the activity of human insulin (100%). The procedure: Insulin-stimulated lipogenesis was measured in isolated rat adipocytes in presence of 1% HSA as described in Moody A J, Stan M A, Stan M, Gliemann J. A Simple Free Fat Cell Bioassay for Insulin. Hormone And Metabolic Research. 1974; 6(1):12-6, see results in Table 6.

In the next experiment the target is insulin receptor A (Homo sapiens, UniProt P06213). The experiment is described as follows: Insulin receptor affinity. It is filed as binding. The conditions noted are these: relative to affinity of human insulin for insulin receptor A (100%).
In a further experiment the test system is Sprague-Dawley rats. The experiment is described as follows: PD studies: blood glucose after subcutaneous dosing. The note with it: sc. It is filed as in vivo. The procedure:
The pharmacodynamic effect of the Insulin Fc conjugates of the examples were investigated in normal male Sprague-Dawley rats weighing approx. 350 g at study start.
Animals had free access to food and water during the experiment period. They were dosed subcutaneously in the neck region with a dose of 30 nmol/kg (unless otherwise stated in the figures below). Blood samples for blood glucose and plasma insulin analysis were collected from the tongue veins up to 10 days post dosing. Blood glucose was measured using Biosen S Line (EKF).

The mark [1] stands for this setting: dose 30 nmol/kg, time 0.041667 days.
Where [2] appears, read: dose 30 nmol/kg, time 0.125 days.
Setting [3] is: dose 30 nmol/kg, time 0.291667 days.

We go through twelve substances from US11471537B2, “Oligomer extended insulin-Fc conjugates” (Novo Nordisk A/S, priority 2017, dated 2022).

insulin receptor A, sequence (P06213 28-1370 isoform P06213-2 limits assumed): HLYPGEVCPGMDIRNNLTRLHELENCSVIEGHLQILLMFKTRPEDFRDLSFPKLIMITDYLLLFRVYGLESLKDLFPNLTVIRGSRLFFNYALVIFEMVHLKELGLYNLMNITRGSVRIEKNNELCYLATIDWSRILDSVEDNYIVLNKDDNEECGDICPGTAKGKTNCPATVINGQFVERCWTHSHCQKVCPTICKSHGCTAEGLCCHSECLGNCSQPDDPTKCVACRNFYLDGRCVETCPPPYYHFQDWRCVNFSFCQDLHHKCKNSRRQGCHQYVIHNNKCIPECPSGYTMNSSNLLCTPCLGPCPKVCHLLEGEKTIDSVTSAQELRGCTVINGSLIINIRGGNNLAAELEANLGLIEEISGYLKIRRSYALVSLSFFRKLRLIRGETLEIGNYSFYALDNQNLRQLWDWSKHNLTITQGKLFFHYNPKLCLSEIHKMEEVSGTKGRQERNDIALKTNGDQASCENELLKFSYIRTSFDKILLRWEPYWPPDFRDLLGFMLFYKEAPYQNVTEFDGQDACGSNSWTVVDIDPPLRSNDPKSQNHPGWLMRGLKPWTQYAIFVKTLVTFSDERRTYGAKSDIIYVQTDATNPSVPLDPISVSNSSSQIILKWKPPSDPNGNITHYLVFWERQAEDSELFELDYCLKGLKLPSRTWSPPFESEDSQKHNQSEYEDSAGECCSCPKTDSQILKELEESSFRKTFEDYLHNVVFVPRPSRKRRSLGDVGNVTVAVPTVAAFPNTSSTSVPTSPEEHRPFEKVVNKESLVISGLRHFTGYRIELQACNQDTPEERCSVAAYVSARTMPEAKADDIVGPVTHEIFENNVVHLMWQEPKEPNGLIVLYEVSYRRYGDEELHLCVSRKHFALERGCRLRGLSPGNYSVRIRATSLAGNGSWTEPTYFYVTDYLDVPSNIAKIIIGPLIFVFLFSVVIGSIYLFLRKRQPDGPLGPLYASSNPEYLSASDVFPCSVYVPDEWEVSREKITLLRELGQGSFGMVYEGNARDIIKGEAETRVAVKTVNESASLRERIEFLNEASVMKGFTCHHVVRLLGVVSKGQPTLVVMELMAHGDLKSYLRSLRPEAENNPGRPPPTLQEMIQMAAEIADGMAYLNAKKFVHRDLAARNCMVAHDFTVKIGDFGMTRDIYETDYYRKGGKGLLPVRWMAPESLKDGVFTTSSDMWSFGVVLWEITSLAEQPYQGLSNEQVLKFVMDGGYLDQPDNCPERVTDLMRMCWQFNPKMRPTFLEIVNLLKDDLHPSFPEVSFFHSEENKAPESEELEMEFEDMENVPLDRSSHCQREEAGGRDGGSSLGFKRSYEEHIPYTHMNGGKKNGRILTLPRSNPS
insulin receptor A, sequence (P06213 763-1382 partner limits assumed): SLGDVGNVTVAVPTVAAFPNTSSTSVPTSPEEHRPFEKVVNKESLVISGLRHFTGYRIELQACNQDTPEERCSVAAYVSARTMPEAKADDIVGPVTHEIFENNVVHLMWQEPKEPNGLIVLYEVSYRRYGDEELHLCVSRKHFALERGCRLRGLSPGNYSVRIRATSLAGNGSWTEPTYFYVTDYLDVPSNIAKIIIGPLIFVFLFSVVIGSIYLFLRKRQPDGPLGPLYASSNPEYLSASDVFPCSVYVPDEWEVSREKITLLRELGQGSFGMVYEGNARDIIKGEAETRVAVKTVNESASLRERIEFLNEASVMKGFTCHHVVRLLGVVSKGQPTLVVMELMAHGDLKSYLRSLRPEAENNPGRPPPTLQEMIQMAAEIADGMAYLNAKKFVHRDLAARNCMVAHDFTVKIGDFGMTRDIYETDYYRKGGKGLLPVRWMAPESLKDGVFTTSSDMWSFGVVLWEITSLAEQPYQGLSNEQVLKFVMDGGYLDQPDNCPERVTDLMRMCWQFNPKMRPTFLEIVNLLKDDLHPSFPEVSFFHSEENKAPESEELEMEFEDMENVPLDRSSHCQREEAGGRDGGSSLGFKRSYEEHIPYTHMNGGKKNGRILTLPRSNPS

On to “(A14A, A21G, A22(GQAP)18, A94G, A95Q, A96A, A97K^, A98P, B29R, desB30 human insulin)/(227A, 234A, 235K, 297E, 315Q, 384Q, des447 hIgG4-Fc(228-447))4-[bis[2-[(2-acetyl)amino]ethyl]amino]-4-oxo-butanoyl Conjugate [Example 5.25]”, for which the “Lipogenesis in rat adipocytes [Potency (%)] Mean Value” with isolated rat adipocytes turned out to be 2.08%. In addition, the “Insulin receptor affinity [IC50 relative to HI (%)] Mean Value” at insulin receptor A was 4.49%. Further, the Average blood glucose in the experiment with Sprague-Dawley rats (dose 30 nmol/kg, time 0 days) came to 5.724 mM; in the experiment with Sprague-Dawley rats (setting [1]), 6.104 mM; with Sprague-Dawley rats (setting [2]) it was 4.9 mM; in the experiment with Sprague-Dawley rats (setting [3]), 4.032 mM; with Sprague-Dawley rats (dose 30 nmol/kg, time 1 day) it was 3.28 mM; with Sprague-Dawley rats (dose 30 nmol/kg, time 2 days) it was 3.864 mM. The Average blood glucose in the experiment on Sprague-Dawley rats (dose 30 nmol/kg, time 3 days) was 6.224 mM; in the experiment on Sprague-Dawley rats (dose 30 nmol/kg, time 4 days) it was 5.976 mM; in the experiment with Sprague-Dawley rats (dose 30 nmol/kg, time 5 days) it was 6.036 mM; in the experiment on Sprague-Dawley rats (dose 30 nmol/kg, time 6 days) it was 6.496 mM; in the experiment with Sprague-Dawley rats (dose 30 nmol/kg, time 7 days), 6.14 mM; in the experiment on Sprague-Dawley rats (dose 30 nmol/kg, time 8 days), 6.452 mM. For the same substance, the Average blood glucose in the experiment on Sprague-Dawley rats (dose 30 nmol/kg, time 9 days) was determined as 6.528 mM; with Sprague-Dawley rats (dose 30 nmol/kg, time 10 days), 6.144 mM.
Take “(A14E, A21G, A22(GQAP)18, A94G, A95Q, A96A, A97K^, A98P, B16E, B25H, B29R, desB30 human insulin)/(227A, 234A, 235K, 297E, 315Q, 384Q, des447 hIgG4-Fc(228-447))4-[bis[2-[(2-acetyl)amino]ethyl]amino]-4-oxo-butanoyl Conjugate [Example 5.31]”: the “Lipogenesis in rat adipocytes [Potency (%)] Mean Value” in the experiment with isolated rat adipocytes is 0.60%. The “Insulin receptor affinity [IC50 relative to HI (%)] Mean Value” at insulin receptor A worked out at 0.47%.
On to “(A14E, A21G, A22(GQAP)24, A118G, A119Q, A120A, A121K^, A122P, B25H, B29R, desB30 human insulin)/(227A, 234A, 235K, 297E, 315Q, 3840, des447 hIgG4-Fc(228-447))3,5-bis[(2-acetyl)amino]benzoyl Conjugate [Example 5.22]”, for which the “Lipogenesis in rat adipocytes [Potency (%)] Mean Value” in the experiment on isolated rat adipocytes is listed as 4.64%. In addition, at insulin receptor A, the “Insulin receptor affinity [IC50 relative to HI (%)] Mean Value” is reported as 3.56%.
In the case of “(A14E, A21G, A22(GQAP)24, A118G, A119Q, A120A, A121K^, A122P, B29R, desB30 human insulin)/(227A, 234A, 235K, 297E, 315Q, 384Q, des447 hIgG4-Fc(228-447))3,5-bis[(2-acetyl)amino]benzoyl Conjugate [Example 5.29]”, in the experiment with isolated rat adipocytes, the “Lipogenesis in rat adipocytes [Potency (%)] Mean Value” came out at 2.64%. In addition, the “Insulin receptor affinity [IC50 relative to HI (%)] Mean Value” on insulin receptor A is recorded as 3.06%.
In the case of “(A14E, A21G, A22(GQEP)19, 98K^, A99P, B25H, B29R, desB30 human insulin)/(226A, 227G, 228P, 234A, 235K, des447 hIgG4-Fc(228-447))3,5-bis[(2-acetyl)amino]benzoyl Conjugate [Example 5.33]”, the “Lipogenesis in rat adipocytes [Potency (%)] Mean Value” in the experiment on isolated rat adipocytes is 5.44%. For the same substance, the “Insulin receptor affinity [IC50 relative to HI (%)] Mean Value” at insulin receptor A was 3.85%. In addition, the Average blood glucose is given as 5.496 mM in the experiment with Sprague-Dawley rats (dose 30 nmol/kg, time 0 days); 5.284 mM in the experiment with Sprague-Dawley rats (setting [1]); 4.716 mM in the experiment on Sprague-Dawley rats (setting [2]); 3.744 mM in the experiment on Sprague-Dawley rats (setting [3]); 3.744 mM in the experiment on Sprague-Dawley rats (dose 30 nmol/kg, time 1 day); 2.232 mM in the experiment on Sprague-Dawley rats (dose 30 nmol/kg, time 2 days). In addition, the Average blood glucose is given as 1.844 mM with Sprague-Dawley rats (dose 30 nmol/kg, time 3 days); 2.432 mM in the experiment with Sprague-Dawley rats (dose 30 nmol/kg, time 4 days); 3.98 mM in the experiment on Sprague-Dawley rats (dose 30 nmol/kg, time 5 days); 6.132 mM with Sprague-Dawley rats (dose 30 nmol/kg, time 6 days); 5.712 mM in the experiment with Sprague-Dawley rats (dose 30 nmol/kg, time 7 days); 5.38 mM with Sprague-Dawley rats (dose 30 nmol/kg, time 8 days). The Average blood glucose stood at 5.316 mM in the experiment on Sprague-Dawley rats (dose 30 nmol/kg, time 9 days) and 5.44 mM with Sprague-Dawley rats (dose 30 nmol/kg, time 10 days).
With “(A14E, A21G, A22(GQEP)19, A98K^, A99P, B25H, B29R, desB30 human insulin)/(227A, 234A, 235K hIgG4-Fc(228-447))4-[bis[2-[(2-acetyl)amino]ethyl]amino]-4-oxo-butanoyl Conjugate [Example 5.1]”, the “Lipogenesis in rat adipocytes [Potency (%)] Mean Value” in the experiment on isolated rat adipocytes is 6.69%. For the same substance, the “Insulin receptor affinity [IC50 relative to HI (%)] Mean Value” on insulin receptor A amounted to 5.07%. Besides, the Average blood glucose came to 6.68 mM in the experiment with Sprague-Dawley rats (dose 30 nmol/kg, time 0 days); 5.888 mM in the experiment with Sprague-Dawley rats (setting [1]); 4.988 mM with Sprague-Dawley rats (setting [2]); 3.752 mM with Sprague-Dawley rats (setting [3]); 2.524 mM with Sprague-Dawley rats (dose 30 nmol/kg, time 1 day); 2.036 mM in the experiment on Sprague-Dawley rats (dose 30 nmol/kg, time 2 days). In addition, the Average blood glucose is reported as 2.964 mM in the experiment on Sprague-Dawley rats (dose 30 nmol/kg, time 3 days); 3.244 mM in the experiment on Sprague-Dawley rats (dose 30 nmol/kg, time 4 days); 6.508 mM with Sprague-Dawley rats (dose 30 nmol/kg, time 6 days); 6.18 mM in the experiment on Sprague-Dawley rats (dose 30 nmol/kg, time 7 days); 5.996 mM in the experiment on Sprague-Dawley rats (dose 30 nmol/kg, time 8 days).
For the substance “A14E, A21G, A22(GQAPGQAPGQAPGQEP)6-GQAP, A122K^, A123P, B25H, B29R, desB30 human insulin/(227A, 234A, 235K, 297E, 315Q, 384Q, des447 hIgG4-Fc(228-447))4-[bis[2-[(2-acetyl)amino]ethyl]amino]-4-oxo-butanoyl Conjugate [Example 5.20]”, the “Lipogenesis in rat adipocytes [Potency (%)] Mean Value” with isolated rat adipocytes stood at 5.41%. Besides, the “Insulin receptor affinity [IC50 relative to HI (%)] Mean Value” on insulin receptor A is given as 5.49%.
With “A14E, A21G, A22(GQAPGQAPGQEP)6-GQAP, A98K^, A99P, B3Q, B25H, B29R, desB30 human insulin/(227A, 234A, 235K hIgG4-Fc(228-447))4-[bis[2-[(2-acetyl)amino]ethyl]amino]-4-oxo-butanoyl Conjugate [Example 5.5]”, the “Lipogenesis in rat adipocytes [Potency (%)] Mean Value” in the experiment on isolated rat adipocytes is listed as 2.21%. Moreover, the “Insulin receptor affinity [IC50 relative to HI (%)] Mean Value” on insulin receptor A turned out to be 3.34%. Besides, the Average blood glucose is recorded as 5.266 mM in the experiment with Sprague-Dawley rats (dose 30 nmol/kg, time 0 days); 5.276 mM in the experiment with Sprague-Dawley rats (setting [1]); 4.894 mM in the experiment with Sprague-Dawley rats (setting [2]); 4.422 mM in the experiment on Sprague-Dawley rats (dose 30 nmol/kg, time 0.208333 days); 4.358 mM with Sprague-Dawley rats (setting [3]); 3.106 mM in the experiment with Sprague-Dawley rats (dose 30 nmol/kg, time 1 day). For the same substance, the Average blood glucose in the experiment with Sprague-Dawley rats (dose 30 nmol/kg, time 2 days) stood at 2.33 mM; with Sprague-Dawley rats (dose 30 nmol/kg, time 3 days) it was 2.786 mM; with Sprague-Dawley rats (dose 30 nmol/kg, time 4 days), 4.764 mM; with Sprague-Dawley rats (dose 30 nmol/kg, time 5 days), 5.842 mM; in the experiment on Sprague-Dawley rats (dose 30 nmol/kg, time 6 days) it was 6.016 mM; with Sprague-Dawley rats (dose 30 nmol/kg, time 7 days) it was 5.76 mM. This substance also showed an Average blood glucose in the experiment with Sprague-Dawley rats (dose 30 nmol/kg, time 8 days) of 5.794 mM.
On to “A14E, A21G, A22(GQEP)3, A34G, A350, A36E, A37K^, A38P, B25H, B29R, desB30 human insulin/(227A, 234A, 235K hIgG4-Fc(228-447))4-[bis[2-[(2-acetyl)amino]ethyl]amino]-4-oxo-butanoyl Conjugate [Example 5.10]”, for which the “Insulin receptor affinity [IC50 relative to HI (%)] Mean Value” at insulin receptor A worked out at 2.47%.
With “A14E, A21G, A22(GQEP)6, A46K^, A47P, B25H, B29R, desB30 human insulin/(227A, 234A, 235K, 297E, 315Q, 384Q, des447 hIgG4-Fc(228-447))4-[bis[2-[(2-acetyl)amino]ethyl]amino]-4-oxo-butanoyl Conjugate [Example 5.32]”, in the experiment with isolated rat adipocytes, the “Lipogenesis in rat adipocytes [Potency (%)] Mean Value” came out at 3.72%. For the same substance, the “Insulin receptor affinity [IC50 relative to HI (%)] Mean Value” on insulin receptor A came out at 2.16%.
With “A14E, A21G, A22(GQEP)19, A98K^, A99P, B3Q, B25H, B29R, desB30 human insulin/(227A, 234A, 235K hIgG4-Fc(228-447))4-[bis[2-[(2-acetyl)amino]ethyl]amino]-4-oxo-butanoyl Conjugate [Example 5.6]”, the “Insulin receptor affinity [IC50 relative to HI (%)] Mean Value” at insulin receptor A is 5.07%. Further, the Average blood glucose turned out to be 6.46 mM in the experiment on Sprague-Dawley rats (dose 30 nmol/kg, time 0 days); 6.024 mM with Sprague-Dawley rats (setting [1]); 5.092 mM in the experiment with Sprague-Dawley rats (setting [2]); 3.90 mM in the experiment with Sprague-Dawley rats (setting [3]); 2.808 mM in the experiment with Sprague-Dawley rats (dose 30 nmol/kg, time 1 day); 2.464 mM with Sprague-Dawley rats (dose 30 nmol/kg, time 2 days). Besides, the Average blood glucose was found to be 2.996 mM in the experiment on Sprague-Dawley rats (dose 30 nmol/kg, time 3 days); 2.996 mM with Sprague-Dawley rats (dose 30 nmol/kg, time 4 days); 5.98 mM in the experiment with Sprague-Dawley rats (dose 30 nmol/kg, time 6 days); 5.82 mM with Sprague-Dawley rats (dose 30 nmol/kg, time 7 days); 6.012 mM in the experiment on Sprague-Dawley rats (dose 30 nmol/kg, time 8 days).
As for insulin degludec [reference compound], in the experiment on Sprague-Dawley rats (3-fold higher dose (90 nmol/kg)), the “time over which blood glucose was lowered” value was “less than half a day”. The Average blood glucose is given as 5.382 mM with Sprague-Dawley rats (dose 90 nmol/kg, time 0 days); 4.104 mM in the experiment on Sprague-Dawley rats (dose 90 nmol/kg, time 0.020833 days); 3.182 mM in the experiment with Sprague-Dawley rats (dose 90 nmol/kg, time 0.041667 days); 2.718 mM in the experiment with Sprague-Dawley rats (dose 90 nmol/kg, time 0.083333 days); 2.336 mM with Sprague-Dawley rats (dose 90 nmol/kg, time 0.166667 days); 3.424 mM with Sprague-Dawley rats (dose 90 nmol/kg, time 0.25 days). Further, the Average blood glucose was 4.292 mM in the experiment with Sprague-Dawley rats (dose 90 nmol/kg, time 0.3336 days); 5.302 mM in the experiment on Sprague-Dawley rats (dose 90 nmol/kg, time 0.5 days); 5.758 mM in the experiment with Sprague-Dawley rats (dose 90 nmol/kg, time 1 day).
